# Laboratory results taken from publication PMC6137088, “The Role of Outer Membrane Proteins and Lipopolysaccharides for the Sensitivity of Escherichia coli to Antimicrobial Peptides” (Frontiers in Microbiology, 2018).
# Where no end group is shown, it is not given here.
# How the values were obtained:
# S. typhimurium LT2 = test: MIC testing (CLSI broth microdilution); format: cell-based; conditions: Table 6, triplicates
# Protocol: (§1) The minimum inhibitory concentrations (MICs) of the AMPs were measured in 96-well microtiter plates according the Clinical and Laboratory Standards Institute [CLSI, formerly National Committee for Clinical Laboratory Standards (NCCLS)] (Wikler et al., [2009]). Liquid Mueller-Hinton-II medium containing increasing concentrations of AMPs is inoculated with a defined number of cells (~10^5 CFUs/ml) in 96-well microtiter plates (polypropylene). Each microtiter plate includes a positive growth control and a negative control (sterile control). After incubation, the minimal inhibitory concentration (MIC) is determined by the lowest concentration showing no visible growth. All plates were incubated for 16–20 h.
# Y. ruckeri 392/2003 = test: MIC testing (CLSI broth microdilution); format: cell-based; conditions: Table 6, triplicates
# Protocol: as §1
# E. coli ATCC25922 ΔwaaE = format: cell-based, Escherichia coli; conditions: Table 6, triplicates
# Source text: (§2) The E. coli strains 470, F632, F653 and F2513 were kindly provided by Prof. H. Brade and Prof. S. Muller-Loennies, Research Center Borstel, Leipniz-Center for Medicine and Biosciences, Germany. E. coli BW25113 (CGSC#:7636), a derivative of F^−, λ^− E. coli K12 strain BD792 is the wild-type strain which was used in the generation of the KEIO collection and ordered from the Coli Genetic Stock Centre (CGSC, Yale University). E. coli JW3596, E. coli JW3024, E. coli JW3595, E. coli JW3606, E. coli JW0212, E. coli JW1667, E. coli JW0554, E. coli JW3605 and E. coli JW3600 are isogenic mutants of waaC, waaE, waaF, waaG, gmhA (lpcA), lpp, ompT, waaP, or waaY derived from the parental strain E. coli BW25113 and were ordered from the KEIO collection (Baba et al., [2006]). E. coli ATCC25922 is a clinical isolate, serotype O6, often used as control strain in antimicrobial susceptibility testing was ordered from the ATCC strain collection. All strains were grown in Mueller-Hinton-II medium and incubation took place aerobically at 37°C for 18–20 h.
# as §1
# E. coli ATCC25922 = format: cell-based, Escherichia coli; conditions: Table 6; E. coli ATCC25922 wild-type; triplicates
# Source text: as §2, §1
# E. coli ATCC25922 ΔwaaC = format: cell-based, Escherichia coli; conditions: Table 6, triplicates
# Source text: as §2, §1
# E. coli ATCC25922 ΔwaaF = format: cell-based, Escherichia coli; conditions: Table 6, triplicates
# Source text: as §2, §1
# E. coli ATCC25922 ΔwaaG = format: cell-based, Escherichia coli; conditions: Table 6, triplicates
# Source text: as §2, §1
Sequence,Antimicrobial activity: MIC (S. typhimurium LT2) [µg/mL],Antimicrobial activity: MIC (Y. ruckeri 392/2003) [µg/mL],Antimicrobial activity: MIC (E. coli ATCC25922 ΔwaaE) [µg/mL],Antimicrobial activity: MIC (E. coli ATCC25922) [µg/mL],Antimicrobial activity: MIC (E. coli ATCC25922 ΔwaaC) [µg/mL],Antimicrobial activity: MIC (E. coli ATCC25922 ΔwaaF) [µg/mL],Antimicrobial activity: MIC (E. coli ATCC25922 ΔwaaG) [µg/mL]
GLRKRLRKFRNKIKEKPKKIGQKIQGLLPKLAPRTDY [L17P],≥64,≥64,≥64,≥64,≥64,≥64,≥64
GLRKRPRKFRNKIKEKLKKIGQKIQGLLPKLAPRTDY [L6P],8,64,8,8,4,4,4
GLRKRLRKFRNKRKEKLKKIGQKIQGLLPKLAPRTDY [I13R],16 to 32,32 to 64,≥64,≥64,32,16,8
GLRKRLRKFRNKDKEKLKKIGQKIQGLLPKLAPRTDY [I13D],≥64,≥64,≥64,≥64,≥64,≥64,≥64
GLRKRLRKFRNKIKEKLPKIGQKIQGLLPKLAPRTDY [K18P],4,32,4,8,2,4,4
GLRKRLRKFRNKIKEDLKKIGQKIQGLLPKLAPRTDY [K16D],4,4,8,4,2,2,4
GLRKRLRKFRNKPKEKLKKIGQKIQGLLPKLAPRTDY [I13P],16 to 32,≥64,32,≥64,32,16,32
GLRKRLRKFRNKMKEKLKKIGQKIQGLLPKLAPRTDY [I13M],8,4,8,8,4,4,4
GLRKRLRKFRNKIKEKLKKIGQKDQGLLPKLAPRTDY [I24D],≥64,≥64,16,≥64,16,16,≥64
GLRKRLRKFRNKFKEKLKKIGQKIQGLLPKLAPRTDY [I13F],4,2,2,4,2,2,2
GLRKRLRKFRNKIKEKLKKIGQKNQGLLPKLAPRTDY [I24N],32,≥64,16,≥64,8,8,16
